Assay results from US9249131B2, “Modulators of ATP-binding cassette transporters” (Vertex Pharmaceuticals Incorporated, priority 2003, dated 2016).

Target: T1, ΔF508-CFTR (Homo sapiens, UniProt P13569, DEL508-508)
T1 construct: expressed in transfected cells; host or cells: NIH3T3 mouse fibroblasts stably expressing ΔF508-CFTR for the optical, whole-cell and single-channel assays; Fisher rat epithelial (FRT) cells for Ussing chamber follow-up
Assay: Assays for ΔF508-CFTR correction and potentiator properties (membrane potential optical and electrophysiological methods)
Type: cell-based
Conditions: CFTR modulation, % Efficacy
From the text: Assays for Detecting and Measuring ΔF508-CFTR Correction and Potentiator Properties of Compounds
A) Membrane Potential Optical Methods for Assaying ΔF508-CFTR Modulation Properties of Compounds
The optical membrane potential assay utilized voltage-sensitive FRET sensors described by Gonzalez and Tsien (See, Gonzales, J. E. and R. Y. Tsien (1995) “Voltage sensing by fluorescence resonance energy transfer in single cells” Biophys J 69 (4): 1272-80, and Gonzalez, J. E. and R. Y. Tsien (1997) “Improved indicators of cell membrane potential that use fluorescence resonance energy transfer” Chem Biol 4 (4): 269-77) in combination with instrumentation for measuring fluorescence changes such as the Voltage/Ion Probe Reader (VIPR) (See, Gonzalez, J. E., K. Oades, et al. (1999) “Cell-based assays and instrumentation for screening ion-channel targets” Drug Discov Today 4 (9): 431-439).
These voltage sensitive assays are based on the change in fluorescence resonant energy transfer (FRET) between the membrane-soluble, voltage-sensitive dye, DiSBAC2 (3), and a fluorescent phospholipid, CC2-DMPE, which is attached to the outer leaflet of the plasma membrane and acts as a FRET donor. Changes in membrane potential (Vm) cause the negatively charged DiSBAC2(3) to redistribute across the plasma membrane and the amount of energy transfer from CC2-DMPE changes accordingly. The changes in fluorescence emission were monitored using VIPR™ II, which is an integrated liquid handler and fluorescent detector designed to conduct cell-based screens in 96- or 384-well microtiter plates.
To identify small molecules that correct the trafficking defect associated with ΔF508-CFTR; a single-addition HTS assay format was developed. The cells were incubated in serum-free medium for 16 hrs at 37° C. in the presence or absence (negative control) of test compound. As a positive control, cells plated in 384-well plates were incubated for 16 hrs at 27° C. to “temperature-correct” ΔF508-CFTR. The cells were subsequently rinsed 3× with Krebs Ringers solution and loaded with the voltage-sensitive dyes. To activate ΔF508-CFTR, […] and the CFTR potentiator, genistein ([…]), were added along with Cl^−-free medium to each well. The addition of Cl^−-free medium promoted Cl^− efflux in response to ΔF508-CFTR activation and the resulting membrane depolarization was optically monitored using the FRET-based voltage-sensor dyes.
To identify potentiators of ΔF508-CFTR, a double-addition HTS assay format was developed. During the first addition, a Cl^−-free medium with or without test compound was added to each well. After 22 sec, a second addition of Cl^−-free medium containing 2-10 µM forskolin was added to activate ΔF508-CFTR. The extracellular Cl^− concentration following both additions was 28 mM, which promoted Cl^− efflux in response to ΔF508-CFTR activation and the resulting membrane depolarization was optically monitored using the FRET-based voltage-sensor dyes.
• Bath Solution #1: (in mM) NaCl 160, KCl 4.5, CaCl2 2, MgCl2 1, HEPES 10, pH 7.4 with NaOH. • Chloride-free bath solution: Chloride salts in Bath Solution #1 are substituted with gluconate salts. • CC2-DMPE: Prepared as a 10 mM stock solution in DMSO and stored at −20° C. • DiSBAC2(3): Prepared as a 10 mM stock in DMSO and stored at −20° C. Cell Culture
NIH3T3 mouse fibroblasts stably expressing ΔF508-CFTR are used for optical measurements of membrane potential. The cells are maintained at 37° C. in 5% CO2 and 90% humidity in Dulbecco's modified Eagle's medium supplemented with 2 mM glutamine, 10% fetal bovine serum, 1×NEAA, β-ME, 1×pen/strep, and 25 mM HEPES in 175 cm^2 culture flasks. For all optical assays, the cells were seeded at 30,000/well in 384-well matrigel-coated plates and cultured for 2 hrs at 37° C. before culturing at 27° C. for 24 hrs. for the potentiator assay. For the correction assays, the cells are cultured at 27° C. or 37° C. with and without compounds for 16-24 hours.

T1 sequence (P13569 with tags, fused parts or gaps DEL508-508): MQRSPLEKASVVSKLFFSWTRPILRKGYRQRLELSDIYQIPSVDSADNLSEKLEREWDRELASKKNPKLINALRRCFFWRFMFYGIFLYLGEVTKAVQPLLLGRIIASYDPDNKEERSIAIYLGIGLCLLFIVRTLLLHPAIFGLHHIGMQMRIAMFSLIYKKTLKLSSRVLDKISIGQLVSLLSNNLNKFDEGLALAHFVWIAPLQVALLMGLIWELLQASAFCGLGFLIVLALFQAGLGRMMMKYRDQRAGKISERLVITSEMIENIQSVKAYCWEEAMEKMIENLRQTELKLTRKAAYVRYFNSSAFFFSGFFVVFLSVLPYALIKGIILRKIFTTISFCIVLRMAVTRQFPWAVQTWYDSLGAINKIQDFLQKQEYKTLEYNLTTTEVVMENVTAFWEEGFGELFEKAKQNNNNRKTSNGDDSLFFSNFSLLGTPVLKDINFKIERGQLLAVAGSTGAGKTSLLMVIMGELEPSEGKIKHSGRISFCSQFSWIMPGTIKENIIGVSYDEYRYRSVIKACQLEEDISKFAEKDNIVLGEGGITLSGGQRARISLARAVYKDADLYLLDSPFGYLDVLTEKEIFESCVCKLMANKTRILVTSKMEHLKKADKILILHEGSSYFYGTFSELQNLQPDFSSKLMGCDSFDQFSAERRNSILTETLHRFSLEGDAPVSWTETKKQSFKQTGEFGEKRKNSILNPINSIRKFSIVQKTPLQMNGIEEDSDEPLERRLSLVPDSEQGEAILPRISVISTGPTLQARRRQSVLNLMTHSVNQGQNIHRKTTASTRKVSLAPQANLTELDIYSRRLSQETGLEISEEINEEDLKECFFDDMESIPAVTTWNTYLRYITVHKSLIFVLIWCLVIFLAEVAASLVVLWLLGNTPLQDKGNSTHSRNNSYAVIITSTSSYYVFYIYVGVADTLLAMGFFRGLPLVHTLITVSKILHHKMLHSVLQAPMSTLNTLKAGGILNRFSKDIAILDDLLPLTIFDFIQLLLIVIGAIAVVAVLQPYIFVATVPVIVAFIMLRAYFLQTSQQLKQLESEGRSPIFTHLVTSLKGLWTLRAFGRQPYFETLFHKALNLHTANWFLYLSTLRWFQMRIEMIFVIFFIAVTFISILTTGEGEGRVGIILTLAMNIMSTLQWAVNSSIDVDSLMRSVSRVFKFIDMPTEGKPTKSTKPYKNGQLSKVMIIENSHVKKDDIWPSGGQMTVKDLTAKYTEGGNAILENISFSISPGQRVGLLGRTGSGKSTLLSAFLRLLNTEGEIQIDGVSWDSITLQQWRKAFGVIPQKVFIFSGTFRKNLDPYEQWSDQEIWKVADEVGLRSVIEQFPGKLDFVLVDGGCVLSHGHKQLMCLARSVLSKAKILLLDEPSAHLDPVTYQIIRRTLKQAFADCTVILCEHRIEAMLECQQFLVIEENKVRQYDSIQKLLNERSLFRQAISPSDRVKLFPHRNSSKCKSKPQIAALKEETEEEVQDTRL

Row | Structure (SMILES) | % Activity
1 | CCOc1ccc2nc(NC(=O)C3CCCCC3)sc2c1 [compound 1] | ++ (“++” means between 25% to 100%)
2 | CCCCC(=O)Nc1nc(-c2cc(C)ccc2C)cs1 [compound 3] | ++ (“++” means between 25% to 100%)
3 | COc1ccccc1-c1csc(NC(=O)c2cccc(C)c2)n1 [compound 5] | ++ (“++” means between 25% to 100%)
4 | COc1ccc(C(=O)Nc2nc(-c3ccccc3OC)cs2)cc1 [compound 6] | ++ (“++” means between 25% to 100%)
5 | COc1cccc(C(=O)Nc2nc(-c3ccccc3OC)cs2)c1 [compound 7] | +++ (“+++” means >100%)
6 | CCc1ccc(C(=O)Nc2nc3ccccc3s2)cc1 [compound 10] | +++ (“+++” means >100%)
7 | CCCc1ccc(C(=O)Nc2nc3ccccc3s2)cc1 [compound 11] | +++ (“+++” means >100%)
8 | O=C(Nc1nc(-c2ccccc2)cs1)C12CC3CC(CC(C3)C1)C2 [compound 17] | ++ (“++” means between 25% to 100%)
9 | O=C(Nc1ncc(-c2ccccc2)s1)c1ccccc1 [compound 18] | ++ (“++” means between 25% to 100%)
10 | O=C(Nc1ncc(Cc2ccccc2Cl)s1)c1ccccc1Cl [compound 19] | ++ (“++” means between 25% to 100%)
11 | O=C(O)CSCC(=O)Nc1nc(-c2ccccc2)c(-c2ccccc2)s1 [compound 20] | ++ (“++” means between 25% to 100%)
12 | O=C(Nc1nc(-c2ccccc2)cs1)c1ccccc1 [compound 21] | ++ (“++” means between 25% to 100%)
13 | O=C(Nc1ncc(Cc2cccc(Cl)c2Cl)s1)C1CC1 [compound 22] | ++ (“++” means between 25% to 100%)
14 | O=C(Nc1ncc(Cc2cccc(Cl)c2)s1)c1ccccc1 [compound 23] | ++ (“++” means between 25% to 100%)
15 | CCC(C(=O)Nc1nc2ccc(C)cc2s1)c1ccccc1 (stereo not shown) [compound 24] | +++ (“+++” means >100%)
16 | O=C(Nc1ncc(Cc2ccccc2)s1)C(c1ccccc1)c1ccccc1 [compound 25] | ++ (“++” means between 25% to 100%)
17 | O=C(Nc1ncc(Cc2ccccc2Cl)s1)c1cccc2ccccc12 [compound 26] | ++ (“++” means between 25% to 100%)

Second part, the compound after the results:

Row | % Activity | Structure (SMILES)
18 | +++ (“+++” means >100%) | Cc1ccc(-c2csc(NC(=O)c3ccccc3)n2)c(C)c1 [compound 2]
19 | ++ (“++” means between 25% to 100%) | COc1ccccc1-c1csc(NC(=O)c2ccc(C)cc2)n1 [compound 4]
20 | +++ (“+++” means >100%) | O=C(Nc1nc2c(s1)CCCC2)c1cccc(Br)c1 [compound 8]
21 | ++ (“++” means between 25% to 100%) | O=C(Nc1nc(-c2cccs2)cs1)c1cccc(Br)c1 [compound 9]
22 | +++ (“+++” means >100%) | CCCCc1ccc(C(=O)Nc2nc3ccccc3s2)cc1 [compound 12]
23 | ++ (“++” means between 25% to 100%) | COc1ccc(-c2ccc(C(=O)Nc3nccs3)cc2)cc1 [compound 13]
24 | ++ (“++” means between 25% to 100%) | COc1ccc(-c2ccc(C(=O)Nc3nc4ccccc4s3)cc2)cc1 [compound 14]
25 | ++ (“++” means between 25% to 100%) | COc1ccc(-c2ccc(C(=O)Nc3nc4ccc(OC)cc4s3)cc2)cc1 [compound 15]
26 | +++ (“+++” means >100%) | CCCCc1ccc(C(=O)Nc2nccs2)cc1 [compound 16]

Same assay, conditions: CFTR modulation, tested using the above methods

Row | Structure (SMILES) | EC50 [µM]
27 | CCOc1ccc2nc(NC(=O)C3CCCCC3)sc2c1 [compound 1] | 10 to 25
28 | CCCCC(=O)Nc1nc(-c2cc(C)ccc2C)cs1 [compound 3] | 10 to 25
29 | COc1ccccc1-c1csc(NC(=O)c2cccc(C)c2)n1 [compound 5] | 10 to 25
30 | COc1ccc(C(=O)Nc2nc(-c3ccccc3OC)cs2)cc1 [compound 6] | 10 to 25
31 | COc1cccc(C(=O)Nc2nc(-c3ccccc3OC)cs2)c1 [compound 7] | 10 to 25
32 | CCc1ccc(C(=O)Nc2nc3ccccc3s2)cc1 [compound 10] | 10 to 25
33 | CCCc1ccc(C(=O)Nc2nc3ccccc3s2)cc1 [compound 11] | 10 to 25
34 | O=C(Nc1nc(-c2ccccc2)cs1)C12CC3CC(CC(C3)C1)C2 [compound 17] | < 10
35 | O=C(Nc1ncc(-c2ccccc2)s1)c1ccccc1 [compound 18] | 10 to 25
36 | O=C(Nc1ncc(Cc2ccccc2Cl)s1)c1ccccc1Cl [compound 19] | 10 to 25
37 | O=C(O)CSCC(=O)Nc1nc(-c2ccccc2)c(-c2ccccc2)s1 [compound 20] | 10 to 25
38 | O=C(Nc1nc(-c2ccccc2)cs1)c1ccccc1 [compound 21] | 10 to 25
39 | O=C(Nc1ncc(Cc2cccc(Cl)c2Cl)s1)C1CC1 [compound 22] | 10 to 25
40 | O=C(Nc1ncc(Cc2cccc(Cl)c2)s1)c1ccccc1 [compound 23] | < 10
41 | CCC(C(=O)Nc1nc2ccc(C)cc2s1)c1ccccc1 (stereo not shown) [compound 24] | 10 to 25
42 | O=C(Nc1ncc(Cc2ccccc2)s1)C(c1ccccc1)c1ccccc1 [compound 25] | < 10
43 | O=C(Nc1ncc(Cc2ccccc2Cl)s1)c1cccc2ccccc12 [compound 26] | 10 to 25

Continued, values first:

Row | EC50 [µM] | Structure (SMILES)
44 | < 10 | Cc1ccc(-c2csc(NC(=O)c3ccccc3)n2)c(C)c1 [compound 2]
45 | < 10 | COc1ccccc1-c1csc(NC(=O)c2ccc(C)cc2)n1 [compound 4]
46 | < 10 | O=C(Nc1nc2c(s1)CCCC2)c1cccc(Br)c1 [compound 8]
47 | < 10 | O=C(Nc1nc(-c2cccs2)cs1)c1cccc(Br)c1 [compound 9]
48 | < 10 | CCCCc1ccc(C(=O)Nc2nc3ccccc3s2)cc1 [compound 12]
49 | < 10 | COc1ccc(-c2ccc(C(=O)Nc3nccs3)cc2)cc1 [compound 13]
50 | < 10 | COc1ccc(-c2ccc(C(=O)Nc3nc4ccccc4s3)cc2)cc1 [compound 14]
51 | < 10 | COc1ccc(-c2ccc(C(=O)Nc3nc4ccc(OC)cc4s3)cc2)cc1 [compound 15]
52 | < 10 | CCCCc1ccc(C(=O)Nc2nccs2)cc1 [compound 16]
